Laboratory results as given in ChEMBL document CHEMBL1151711, “Studies on quinones. Part 44: Novel angucyclinone N-heterocyclic analogues endowed with antitumoral activity” (Bioorg Med Chem, 2008).

How the values were obtained:
MRC5 = experiment: Cytotoxicity against human MRC5 cells after 3 days by MTT assay; format: cell-based; settings: MRC5, 72 h
AGS = experiment: Cytotoxicity against human AGS cells after 3 days by MTT assay; format: functional, cell-based; settings: 72 h
SK-MES-1 = experiment: Cytotoxicity against human SK-MES-1 cells after 3 days by MTT assay; format: functional, cell-based; settings: SK-MES-1, 72 h
J82 = experiment: Cytotoxicity against human J82 cells after 3 days by MTT assay; format: functional, cell-based; settings: J82, 72 h
HL-60 = experiment: Cytotoxicity against human HL-60 cells after 3 days by MTT assay; format: functional, cell-based; settings: HL-60, 72 h

For O=C1C=CC(=O)c2c1cnc1c2C(=O)CCC1, the IC50 (MRC5) was 20.2 µM, the IC50 (AGS) was 19.4 µM and the IC50 (SK-MES-1) was 25.7 µM. The IC50 (J82) was 38.8 µM and the IC50 (HL-60) was 15.8 µM.

Compound O=C1c2cnc3c(c2C(=O)c2cccc(O)c21)CCCC3 has an IC50 (MRC5) of 63.6 µM, an IC50 (AGS) of 36.8 µM and an IC50 (SK-MES-1) of 36.8 µM. It also gave an IC50 (J82) of 20.5 µM and an IC50 (HL-60) of 45.8 µM.

Work on CC1(C)CC(=O)c2c(ncc3c2C(=O)c2cccc(O)c2C3=O)C1 yielded an IC50 (MRC5) of 6.5 µM, an IC50 (AGS) of 11.6 µM and an IC50 (SK-MES-1) of 3.6 µM. The IC50 (J82) was 3.9 µM and the IC50 (HL-60) was 2.3 µM.

With CC1(C)CC(=O)c2c(ncc3c2C(=O)C=CC3=O)C1 the IC50 (MRC5) was 39.9 µM, the IC50 (AGS) was 75.2 µM and the IC50 (SK-MES-1) was > 100 µM. For the same compound, the IC50 (J82) was 95.3 µM and the IC50 (HL-60) was 43.6 µM.

Cc1cnc2c(c1)C(=O)c1c(cnc3c1C(=O)CCC3)C2=O showed an IC50 (MRC5) of 0.73 µM, an IC50 (AGS) of 1.2 µM and an IC50 (SK-MES-1) of 1.7 µM. It also gave an IC50 (J82) of 1.8 µM and an IC50 (HL-60) of 2.4 µM.

Work on Cn1c(=O)c2c3c(cnc2n(C)c1=O)C(=O)C=CC3=O yielded an IC50 (MRC5) of 72.8 µM, an IC50 (AGS) of 82.1 µM and an IC50 (SK-MES-1) of 67.5 µM. The IC50 (J82) was 78.6 µM and the IC50 (HL-60) was 31.5 µM.

For O=C1c2c(O)cccc2C(=O)c2c3c(cc(O)c21)CCCC3, the IC50 (MRC5) was > 100 µM, the IC50 (AGS) was 41.6 µM and the IC50 (SK-MES-1) was 73.7 µM. For the same compound, the IC50 (J82) was 69.9 µM and the IC50 (HL-60) was > 100 µM.

O=C1c2ccccc2C(=O)c2c1cnc1c2C(=O)CCC1 showed an IC50 (MRC5) of 41.3 µM, an IC50 (AGS) of 19 µM and an IC50 (SK-MES-1) of 51.6 µM. For the same compound, the IC50 (J82) was 62.6 µM and the IC50 (HL-60) was 73.2 µM.

With Cc1nc2c(c3c1C(=O)c1ccccc1C3=O)c(=O)n(C)c(=O)n2C the IC50 (MRC5) was > 100 µM, the IC50 (AGS) was 19.1 µM and the IC50 (SK-MES-1) was 5.2 µM. For the same compound, the IC50 (J82) was 24.9 µM and the IC50 (HL-60) was > 100 µM.

Work on O=C1c2cnc3c(c2C(=O)c2cccc(O)c21)C(=O)CCC3 yielded an IC50 (MRC5) of 11.3 µM, an IC50 (AGS) of 1.6 µM and an IC50 (SK-MES-1) of 3.7 µM. It also gave an IC50 (J82) of 9.2 µM and an IC50 (HL-60) of 5.6 µM.

For Cc1nc2c(c3c1C(=O)C=CC3=O)c(=O)n(C)c(=O)n2C, the IC50 (MRC5) was 67.1 µM, the IC50 (AGS) was 50.3 µM and the IC50 (SK-MES-1) was 70.2 µM. It also gave an IC50 (J82) of 72.4 µM and an IC50 (HL-60) of 26.3 µM.

Cc1nc2c(c3c1C(=O)c1ccccc1C3=O)C(=O)CCC2 showed an IC50 (MRC5) of 21.5 µM, an IC50 (AGS) of 9.5 µM and an IC50 (SK-MES-1) of 11.9 µM. It also gave an IC50 (J82) of 7.7 µM and an IC50 (HL-60) of 45.2 µM.

In the case of Cc1nc2c(c3c1C(=O)c1c(O)cccc1C3=O)C(=O)CCC2, the IC50 (MRC5) is reported as 17.3 µM, the IC50 (AGS) is reported as 4.5 µM and the IC50 (SK-MES-1) is reported as 10.2 µM. The IC50 (J82) was 17.5 µM and the IC50 (HL-60) was 23.9 µM.

For Cc1nc2c(c3c1C(=O)c1c(O)cccc1C3=O)C(=O)CC(C)(C)C2, the IC50 (MRC5) was 5.5 µM, the IC50 (AGS) was 7.4 µM and the IC50 (SK-MES-1) was 4.6 µM. It also gave an IC50 (J82) of 15.7 µM and an IC50 (HL-60) of 11.8 µM.

In the case of Cn1c(=O)c2c3c(cnc2n(C)c1=O)C(=O)c1c(O)cccc1C3=O, the IC50 (MRC5) is reported as 6.8 µM, the IC50 (AGS) is reported as 5.9 µM and the IC50 (SK-MES-1) is reported as 8.1 µM. It also gave an IC50 (J82) of 9.2 µM and an IC50 (HL-60) of 15.9 µM.

In the case of Cn1c(=O)c2c3c(cnc2n(C)c1=O)C(=O)c1ccccc1C3=O, the IC50 (MRC5) is reported as 12.6 µM, the IC50 (AGS) is reported as 3.5 µM and the IC50 (SK-MES-1) is reported as 8.9 µM. For the same compound, the IC50 (J82) was 8.7 µM and the IC50 (HL-60) was 20.4 µM.

In the case of Cc1nc2c(c3c1C(=O)c1c(O)cccc1C3=O)c(=O)n(C)c(=O)n2C, the IC50 (MRC5) is reported as > 100 µM, the IC50 (AGS) is reported as 70 µM and the IC50 (SK-MES-1) is reported as > 100 µM. For the same compound, the IC50 (J82) was > 100 µM and the IC50 (HL-60) was > 100 µM.

Cc1nc2c(c3c1C(=O)C=CC3=O)C(=O)CCC2 showed an IC50 (MRC5) of 20.5 µM, an IC50 (AGS) of 22 µM and an IC50 (SK-MES-1) of 3.5 µM. For the same compound, the IC50 (J82) was 5.6 µM and the IC50 (HL-60) was 46.5 µM.

With Cc1nc2c(c3c1C(=O)c1ccccc1C3=O)C(=O)CC(C)(C)C2 the IC50 (MRC5) was 15.9 µM, the IC50 (AGS) was 4.5 µM and the IC50 (SK-MES-1) was 13.5 µM. The IC50 (J82) was 18.9 µM and the IC50 (HL-60) was 17.5 µM.
